The IC50 is the concentration needed to halve the response being measured. In general, inhibition refers to how much of the control response was suppressed.

Data set [1] has as its target human DNMT1 (Homo sapiens, UniProt P26358). Briefly: biochemical.
The test system of data set [2] is CamA. Format: biochemical.
The target in data set [3] is CcrM (Caulobacter vibrioides, UniProt P0CAW2). Format: biochemical.
The target of data set [4] is Dam (Escherichia coli, UniProt P0AEE8). Format: biochemical.
Data set [5] addresses T1, MBD4 (Mus musculus, UniProt Q9Z2D7).
T1 sequence (Q9Z2D7 411-554 limits assumed): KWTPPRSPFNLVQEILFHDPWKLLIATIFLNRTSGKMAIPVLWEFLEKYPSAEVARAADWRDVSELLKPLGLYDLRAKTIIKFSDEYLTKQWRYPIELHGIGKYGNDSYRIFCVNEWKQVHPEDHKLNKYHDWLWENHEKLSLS
Format: biochemical. The following applies: inhibitor 2 μM.

Data set [6] addresses TDG (Homo sapiens, UniProt Q13569). Format: biochemical.
The target in data set [7] is T2, MYH (Mus musculus, UniProt Q99P21).
T2 sequence (Q99P21 1-515): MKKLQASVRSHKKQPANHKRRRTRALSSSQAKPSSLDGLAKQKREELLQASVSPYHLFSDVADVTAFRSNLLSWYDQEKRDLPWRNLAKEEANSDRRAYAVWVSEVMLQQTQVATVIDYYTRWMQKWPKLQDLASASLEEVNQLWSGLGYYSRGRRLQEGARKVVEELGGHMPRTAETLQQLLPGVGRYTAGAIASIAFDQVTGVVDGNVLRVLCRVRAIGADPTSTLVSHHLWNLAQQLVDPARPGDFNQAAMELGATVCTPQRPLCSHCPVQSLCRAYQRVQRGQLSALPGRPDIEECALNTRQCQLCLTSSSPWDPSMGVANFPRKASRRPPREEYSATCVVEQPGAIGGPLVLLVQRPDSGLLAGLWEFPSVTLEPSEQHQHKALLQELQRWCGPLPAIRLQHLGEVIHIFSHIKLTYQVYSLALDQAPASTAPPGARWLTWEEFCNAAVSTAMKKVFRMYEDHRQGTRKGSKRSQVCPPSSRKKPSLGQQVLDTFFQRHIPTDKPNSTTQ
Format: biochemical. The following applies: inhibitor 2 μM.

Data set [8] addresses T3, Pol η (Homo sapiens, UniProt Q9Y253).
T3 sequence (Q9Y253 1-432 limits assumed): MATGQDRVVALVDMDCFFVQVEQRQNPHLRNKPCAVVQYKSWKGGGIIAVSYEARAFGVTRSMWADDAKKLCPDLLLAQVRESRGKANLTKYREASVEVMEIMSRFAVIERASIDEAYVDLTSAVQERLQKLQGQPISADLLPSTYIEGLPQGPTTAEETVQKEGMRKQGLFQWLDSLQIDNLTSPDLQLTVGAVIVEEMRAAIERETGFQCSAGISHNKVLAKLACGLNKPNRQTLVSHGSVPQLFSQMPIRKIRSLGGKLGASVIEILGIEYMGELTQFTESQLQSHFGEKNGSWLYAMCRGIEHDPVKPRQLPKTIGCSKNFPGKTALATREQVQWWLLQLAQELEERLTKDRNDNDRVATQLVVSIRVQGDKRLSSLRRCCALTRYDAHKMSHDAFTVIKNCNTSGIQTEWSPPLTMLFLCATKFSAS
Briefly: Pol η nucleotide incorporation assay. Format: biochemical.

Data set [9] concerns Pol θ. Format: biochemical, Human. The following applies: 50 μM.
Data set [10] addresses DNMT3A2–3L complex (Homo sapiens, UniProt Q9Y6K1). Format: biochemical. The settings on record: [E]/[DNA] 1:2 versus 1:10, 10 μM.
The test system of data set [11] is A549 human non-small cell lung carcinoma (NSCLC) cells. Format: cell-based. The following applies: three days, same conditions as compound 11.

Chain of CcrM (P0CAW2 whole entry): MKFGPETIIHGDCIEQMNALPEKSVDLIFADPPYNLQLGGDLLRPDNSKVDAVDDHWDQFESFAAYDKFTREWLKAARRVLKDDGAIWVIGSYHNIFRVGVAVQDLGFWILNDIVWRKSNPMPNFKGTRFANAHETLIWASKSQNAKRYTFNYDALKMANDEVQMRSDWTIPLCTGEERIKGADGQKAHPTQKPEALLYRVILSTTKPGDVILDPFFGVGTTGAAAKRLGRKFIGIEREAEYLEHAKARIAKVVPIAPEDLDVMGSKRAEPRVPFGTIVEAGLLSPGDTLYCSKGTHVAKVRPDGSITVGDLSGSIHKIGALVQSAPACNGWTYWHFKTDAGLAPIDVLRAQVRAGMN
Chain of human DNMT1 (P26358 350-1600): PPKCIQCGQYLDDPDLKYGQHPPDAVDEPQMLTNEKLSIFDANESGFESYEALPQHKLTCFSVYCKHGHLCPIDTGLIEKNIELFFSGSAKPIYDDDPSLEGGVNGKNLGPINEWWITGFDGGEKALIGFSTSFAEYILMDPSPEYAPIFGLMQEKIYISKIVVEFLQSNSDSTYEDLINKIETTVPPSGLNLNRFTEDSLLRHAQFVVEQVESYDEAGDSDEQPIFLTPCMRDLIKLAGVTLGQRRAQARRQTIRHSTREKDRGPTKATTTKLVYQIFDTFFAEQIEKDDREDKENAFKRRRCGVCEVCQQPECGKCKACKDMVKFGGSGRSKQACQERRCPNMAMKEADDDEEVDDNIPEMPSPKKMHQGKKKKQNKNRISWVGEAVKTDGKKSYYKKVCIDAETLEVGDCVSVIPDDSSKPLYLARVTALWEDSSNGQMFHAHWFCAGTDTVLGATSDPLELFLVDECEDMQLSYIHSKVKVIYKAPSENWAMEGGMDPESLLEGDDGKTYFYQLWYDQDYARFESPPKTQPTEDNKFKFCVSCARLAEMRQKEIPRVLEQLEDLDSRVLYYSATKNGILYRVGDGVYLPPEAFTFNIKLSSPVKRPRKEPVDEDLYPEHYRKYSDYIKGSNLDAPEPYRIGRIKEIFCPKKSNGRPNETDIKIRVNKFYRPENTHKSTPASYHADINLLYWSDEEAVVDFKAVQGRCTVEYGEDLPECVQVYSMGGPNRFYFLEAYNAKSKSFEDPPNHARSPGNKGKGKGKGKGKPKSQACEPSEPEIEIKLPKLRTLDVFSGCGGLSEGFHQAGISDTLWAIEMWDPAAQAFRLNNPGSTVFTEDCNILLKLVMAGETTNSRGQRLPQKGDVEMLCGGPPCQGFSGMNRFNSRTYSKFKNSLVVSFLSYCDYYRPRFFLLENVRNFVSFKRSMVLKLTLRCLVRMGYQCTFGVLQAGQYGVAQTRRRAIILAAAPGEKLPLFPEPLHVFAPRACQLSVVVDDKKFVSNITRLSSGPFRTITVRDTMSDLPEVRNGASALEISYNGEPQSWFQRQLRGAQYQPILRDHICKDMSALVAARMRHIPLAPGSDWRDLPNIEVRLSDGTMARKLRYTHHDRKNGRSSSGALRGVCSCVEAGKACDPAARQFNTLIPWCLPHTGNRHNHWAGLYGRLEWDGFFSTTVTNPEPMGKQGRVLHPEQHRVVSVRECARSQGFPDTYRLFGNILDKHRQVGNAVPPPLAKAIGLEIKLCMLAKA
Chain of TDG (Q13569 whole entry): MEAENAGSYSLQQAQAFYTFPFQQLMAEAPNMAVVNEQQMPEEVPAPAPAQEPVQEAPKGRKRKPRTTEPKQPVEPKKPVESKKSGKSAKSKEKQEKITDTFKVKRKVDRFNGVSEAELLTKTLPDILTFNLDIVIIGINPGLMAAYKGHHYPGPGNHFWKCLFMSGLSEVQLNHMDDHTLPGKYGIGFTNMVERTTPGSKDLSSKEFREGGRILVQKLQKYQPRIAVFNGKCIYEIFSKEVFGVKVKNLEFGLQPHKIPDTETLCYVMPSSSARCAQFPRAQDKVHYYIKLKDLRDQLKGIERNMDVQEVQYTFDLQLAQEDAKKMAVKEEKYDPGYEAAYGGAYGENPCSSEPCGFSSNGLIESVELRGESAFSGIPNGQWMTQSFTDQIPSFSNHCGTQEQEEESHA
Chain of Dam (P0AEE8 whole entry): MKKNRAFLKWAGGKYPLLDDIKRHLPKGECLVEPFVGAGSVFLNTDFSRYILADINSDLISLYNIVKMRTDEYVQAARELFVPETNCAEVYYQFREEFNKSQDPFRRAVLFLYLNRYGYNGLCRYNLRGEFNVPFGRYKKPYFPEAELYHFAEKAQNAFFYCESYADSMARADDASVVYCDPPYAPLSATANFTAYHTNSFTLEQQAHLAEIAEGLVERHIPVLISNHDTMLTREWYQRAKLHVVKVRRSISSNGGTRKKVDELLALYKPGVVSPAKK

As for `Cc1cc(Nc2ccc(NC(=O)c3ccc(Nc4ccnc5ccccc45)cc3)cc2)nc(N)n1` [Compound 1], the “inhibition of DNMT1” value in data set [1] (10 μM compound, [E]/[DNA]=1:10) was ~ 70%. For the same molecule, the “inhibition of CamA” value in data set [2] (10 μM) is on record as “less than 50%”. Further, the “inhibition of CcrM (in words)” value in data set [3] is given as “no inhibitory effect at all”. In data set [4], the “inhibition of Dam (in words)” value is listed as “no inhibitory effect at all”. Moreover, in data set [5], the “inhibition of MBD4 activity on T:G mismatch” value is on record as “do not exhibit effective inhibition” and the “inhibition of MBD4 activity on U:G mismatch” value is reported as “do not exhibit effective inhibition”. Moreover, the “inhibition of TDG activity on T:G mismatch” value in data set [6] was “do not exhibit effective inhibition”. The “inhibition of MYH excision of adenine opposite 8-oxoG” value in [7] is recorded as “do not exhibit effective inhibition”. In addition, the “inhibition of Pol η activity” value in data set [8] (10 μM compound) is listed as “more than 50%”. Further, the “inhibition of Pol θ activity” value in data set [9] was ~ 50%.

In the case of `OC[C@H]1O[C@@H](n2cnc3c(NCCCc4ccccc4)ncnc32)[C@H](O)[C@@H]1O` [MC4741, (2R,3S,4R,5R)-2-(Hydroxymethyl)-5-(6-((3-phenylpropyl)-amino)-9H-purin-9-yl)tetrahydrofuran-3,4-diol], in data set [2] (read-out: IC50 against CamA), the half-inhibitory concentration (IC50) came out at 700 nM.

For the molecule `Nc1ncnc2c1ncn2[C@@H]1O[C@H](C[C@@H](N)CC[C@H](N)C(=O)O)[C@@H](O)[C@H]1O` [sinefungin], the inhibition at 10 µM in data set [1] (read-out: inhibition of DNMT1) is roughly 50%. The “change of DNMT3A2–3L inhibition as a function of DNA substrate concentration” value in data set [10] is “did not change”. Besides, in data set [2], the “inhibition of CamA (in words)” value is recorded as “limited inhibition”. The “inhibition of CcrM (in words)” value in data set [3] is given as “significant inhibition”. Further, in [8] (10 μM), the “impact on Pol η polymerase activity (in words)” value was “no impact on polymerase activity”.

Turning to `CCc1c(C#N)c(SC(C(N)=O)c2ccccc2)nc(N(C)C)c1C#N` (centres unmarked) [GSK3484862], in [11], the “A549 cell viability / toxicity (in words)” value is “viabilities similar to control cells”.

Source of the values: paper PMC11663113 (Cell chemical biology, 2024).
